Assays:
[1] = Particle size measurement by photon correlation spectroscopy; assay type: physicochemical; conditions: PCS, diluted in ethylene glycol, n = 3
Experimental: The average particle size of GL nanoparticles, GL solid complexes, the β-CD and the gliclazide pure drug were measured by the method of photon correlation spectroscopy (PCS) using Malvern Zetasizer 3000HSA (Malvern Worcestershire, UK). Prior to measurements, about 50 mg of each sample were diluted with 100 ml of ethylene glycol. The sizes of the above-mentioned four particle distributions were estimated by setting the intensity of the scattered light at λ=750 nm and the scattering angle at θ=90°. The background medium, i.e. the ethylene glycol (η=16.1 mPa·s) with the refractive index thereof being 1.431.

[2] = In vitro dissolution test, USP 24 paddle apparatus; assay type: physicochemical; conditions: 37°C; for DP (dissolved percentage): deionized water
Experimental: According to the USP 24 paddle apparatus, in vitro dissolution tests are performed with Hanson SR8 Plus (Chatsworth, USA). Three samples containing 80 mg of GL pure drug, GL solid complexes with an equivalent amount of GLs and GL nanospheres with an equivalent amount of GLs are poured separately into 900 ml deionized water at 37±0.5° C. with stirring rate at 100 rpm. Afterwards, 0.2 ml of each sample was withdrawn respectively at 1, 3, 5, 10, 15, 30, 60 and 120 min by the Waters transfer module (Milford, USA). Subsequently, the concentration of the samples was assayed using the HPLC method. The dissolution profiles are evaluated by the dissolution efficiency (DE) parameter (Khan, 1975) and the dissolved percentage (DP). The DE of GL pure drug, GL nanospheres and GL solid complex are calculated from the following equation (3).
wherein, y represents the percentage of dissolved product;
t1 and t2 represents the two different time points
y100 represents the maximum percentage of the dissolved sample

[3] = 5 min, 900 ml deionized water, 100 rpm, 80 mg GL equivalent, n = 6
[4] = 30 min, 900 ml deionized water, 100 rpm, n = 6
[5] = 60 min, 900 ml deionized water, 100 rpm, n = 6

Row | Mean size ± S.D. [1] [μm] | DE5 (dissolution efficiency) [2, 3] | DP5 (dissolved percentage) [2, 3] | DE30 (dissolution efficiency) [2, 4] | DP30 (dissolved percentage) [2, 4] | DE60 (dissolution efficiency) [2, 5] | DP60 (dissolved percentage) [2, 5] | DP (dissolved percentage) ([2]; after 60 minutes) [%] | DP (dissolved percentage) ([2]; after five minutes) [%] | SMILES
1 | 47.56 ± 2.11 | 0.0129 | 1.44 | 0.0229 | 3.84 | 0.0416 | 8.23 | 8.23 | 1.44 | Cc1ccc(S(=O)(=O)NC(=O)NN2CC3CCCC3C2)cc1 (stereo not shown) [GL]
2 | 161.03±3.12 | – | – | – | – | – | – | – | – | OC[C@H]1O[C@@H]2O[C@H]3[C@H](O)[C@@H](O)[C@@H](O[C@H]4[C@H](O)[C@@H](O)[C@@H](O[C@H]5[C@H](O)[C@@H](O)[C@@H](O[C@H]6[C@H](O)[C@@H](O)[C@@H](O[C@H]7[C@H](O)[C@@H](O)[C@@H](O[C@H]8[C@H](O)[C@@H](O)[C@@H](O[C@H]1[C@H](O)[C@H]2O)O[C@@H]8CO)O[C@@H]7CO)O[C@@H]6CO)O[C@@H]5CO)O[C@@H]4CO)O[C@@H]3CO [β-CD]
